Results from PubChem BioAssay AID328 (DTP/NCI, 2004).
Several values for one entry are separate records, joined by “and”; a condition that tells them apart may be missing. Identical values can stand only once. Toxic doses and inconclusive results are not listed.

Tested on: BDF1 mice, P388 leukemia ip, median survival T/C
Assay: NCI In Vivo Anticancer Drug Screen. Data for tumor model P388 Leukemia (intraperitoneal) in B6D2F1 (BDF1) mice
Settings: endpoint: median survival time, higher = longer survival
Method in brief: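 Mice carrying the transplantable tumour receive compound or vehicle. Survival is followed in each arm, and the treated measure is divided by the vehicle measure.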

[1] = dose: 100.0 mg/kg/injection, schedule: Q04DX003 (ip), vehicle: saline with Tween-80
[2] = dose: 200.0 mg/kg/injection, schedule: Q04DX003 (ip), vehicle: saline with Tween-80
[3] = dose: 400.0 mg/kg/injection, schedule: Q04DX003 (ip), vehicle: saline with Tween-80

Compound: CCCCCC[P+](c1ccccc1)(c1ccccc1)c1ccccc1
- T/C (dose: 6.25 mg/kg/injection, schedule: Q01DX009 (ip), vehicle: saline): 114 % of control
- T/C (dose: 6.25 mg/kg/injection, schedule: Q04DX003 (ip), vehicle: saline): 109 % of control
- T/C (dose: 12.5 mg/kg/injection, schedule: Q01DX009 (ip), vehicle: saline): 92 % of control
- T/C (dose: 12.5 mg/kg/injection, schedule: Q04DX003 (ip), vehicle: saline): 104 % of control

Compound: Oc1ccc(C=Nc2ccccc2N=Cc2ccc(O)c(O)c2)cc1O
- T/C (dose: 100.0 mg/kg/injection, schedule: Q01DX009 (ip), vehicle: saline with Tween-80): 109 % of control
- T/C [1]: 110 % of control
- T/C (dose: 200.0 mg/kg/injection, schedule: Q01DX009 (ip), vehicle: saline with Tween-80): 109 % of control
- T/C [2]: 105 % of control
- T/C (dose: 400.0 mg/kg/injection, schedule: Q01DX009 (ip), vehicle: saline with Tween-80): 104 % of control
- T/C [3]: 110 % of control

Compound: O=C1c2cccc(O)c2C(=O)c2c(O)cccc21
- T/C (dose: 100.0 mg/kg/injection, schedule: Q04DX003 (ip), vehicle: saline): 100 % of control and 109 % of control
- T/C (dose: 200.0 mg/kg/injection, schedule: Q04DX003 (ip), vehicle: saline): 109 % of control
- T/C (dose: 400.0 mg/kg/injection, schedule: Q04DX003 (ip), vehicle: saline): 95 % of control and 118 % of control

Compound: Cc1cc(O)n(Cc2ccccc2)c(=O)c1
- T/C [1]: 102 % of control
- T/C [2]: 87 % of control
- T/C [3]: 107 % of control

Compound: C=C1C(=O)O[C@@H]2/C=C(/C)[C@@]3(O)C=C[C@](C)(C[C@@H](OC(=O)/C(=C\C)COC(C)=O)[C@@H]12)O3
- T/C (dose: 0.38 mg/kg/injection, schedule: Q01DX010 (ip), vehicle: carboxymethylcellulose (CMC)): 90 % of control
- T/C (dose: 0.75 mg/kg/injection, schedule: Q01DX010 (ip), vehicle: carboxymethylcellulose (CMC)): 95 % of control
- T/C (dose: 1.0 mg/kg/injection, schedule: Q01DX009 (ip), vehicle: carboxymethylcellulose (CMC)): 103 % of control
- T/C (dose: 1.5 mg/kg/injection, schedule: Q01DX010 (ip), vehicle: carboxymethylcellulose (CMC)): 109 % of control
- T/C (dose: 2.5 mg/kg/injection, schedule: Q01DX010 (ip), vehicle: saline): 118 % of control
- T/C (dose: 3.0 mg/kg/injection, schedule: Q01DX010 (ip), vehicle: carboxymethylcellulose (CMC)): 104 % of control
- T/C (dose: 5.0 mg/kg/injection, schedule: Q01DX010 (ip), vehicle: carboxymethylcellulose (CMC)): 157 % of control
- T/C (dose: 5.0 mg/kg/injection, schedule: Q01DX010 (ip), vehicle: saline): 122 % of control
- T/C (dose: 6.0 mg/kg/injection, schedule: Q01DX010 (ip), vehicle: carboxymethylcellulose (CMC)): 163 % of control
- T/C (dose: 8.0 mg/kg/injection, schedule: Q01DX009 (ip), vehicle: carboxymethylcellulose (CMC)): 117 % of control
- T/C (dose: 8.0 mg/kg/injection, schedule: Q01DX010 (ip), vehicle: carboxymethylcellulose (CMC)): 157 % of control
- T/C (dose: 12.0 mg/kg/injection, schedule: Q01DX010 (ip), vehicle: carboxymethylcellulose (CMC)): 118 % of control
- T/C (dose: 18.0 mg/kg/injection, schedule: Q01DX010 (ip), vehicle: saline): 109 % of control
- T/C (dose: 27.0 mg/kg/injection, schedule: Q01DX010 (ip), vehicle: carboxymethylcellulose (CMC)): 105 % of control
- T/C (dose: 40.0 mg/kg/injection, schedule: Q01DX010 (ip), vehicle: saline): 100 % of control

Compound: COc1cccc2c1C(=O)c1c(O)c3c(c(O)c1C2=O)CC(O)(/C(C)=N/NC(=O)CCC(=O)N/N=C(\C)C1(O)Cc2c(O)c4c(c(O)c2C(OC2CC(N)C(O)C(C)O2)C1)C(=O)c1c(OC)cccc1C4=O)CC3OC1CC(N)C(O)C(C)O1 (stereo not drawn)
- T/C (dose: 14.4 mg/kg/injection, schedule: Q04DX003 (ip), vehicle: water): 158 % of control
- T/C (dose: 40.0 mg/kg/injection, schedule: Q04DX003 (ip), vehicle: water): 109 % of control
